This note sets out measurements from the NIST ThermoML archive (doi:10.1016/j.tca.2004.08.013).

Molecules are shown by their SMILES. ± gives the expanded uncertainty stated by the source.

The conditions of data set [1]: 101.33 kPa, Liquid.
Data set [2] in a line: xn = mol fraction of the nth substance listed. The note with it: 101.3 kPa, Liquid.

Turning to `CCOC(C)=O` [ethyl acetate], in data set [1] (303.15 K), the mass density was 888.42 ± 0.45 kg/m3 and the viscosity is reported as 0.399 ± 0.008 mPa·s.

Regarding `CCCCOC(C)=O` [butyl ethanoate], in data set [1] (303.15 K), the mass density is listed as 871.28 ± 0.48 kg/m3 and the viscosity is given as 0.644 ± 0.011 mPa·s.

On to `ClC(Cl)Cl` [trichloromethane], for which, in data set [1] (303.15 K), the mass density is 1470.64 ± 1.2 kg/m3 and the viscosity worked out at 0.52 ± 0.009 mPa·s. For the same compound, in data set [1] (313.15 K), the mass density came out at 1448.43 ± 1.1 kg/m3 and the viscosity was 0.471 ± 0.009 mPa·s.

Take `CCCCN` [1-butanamine]: in data set [1] (303.15 K), the mass density came out at 728.65 ± 0.81 kg/m3 and the viscosity was 0.444 ± 0.009 mPa·s. In addition, in data set [1] (313.15 K), the mass density is listed as 719.17 ± 0.82 kg/m3 and the viscosity was 0.393 ± 0.008 mPa·s.

In the case of `CCCNCCC` [dipropylamine], in data set [1] (303.15 K), the mass density worked out at 731.21 ± 0.8 kg/m3 and the viscosity was 0.512 ± 0.01 mPa·s. In data set [1] (313.15 K), the mass density is reported as 726.15 ± 3 kg/m3 and the viscosity amounted to 0.423 ± 0.008 mPa·s.

As to `CCC(C)=O` [butanone], in data set [1] (303.15 K), the mass density was 799.69 ± 0.61 kg/m3 and the viscosity turned out to be 0.365 ± 0.007 mPa·s.

With `CCCCNCCCC` [dibutylamine], the figures for the mass density in data set [1] (303.15 K) and in data set [1] (313.15 K) were 752.28 ± 0.77 kg/m3 and 743.44 ± 0.78 kg/m3, respectively. In addition, the viscosity in data set [1] (303.15 K) was 0.758 ± 0.013 mPa·s; in data set [1] (313.15 K), 0.665 ± 0.012 mPa·s.

As for `CCCCNCCCC` [dibutylamine] + ClC(Cl)Cl, the mass density in data set [2] (303.15 K, x1 = 0.0103) was 1455.46 ± 1.3 kg/m3; in data set [2] (303.15 K, x1 = 0.0197) it was 1441.84 ± 1.3 kg/m3; in data set [2] (303.15 K, x1 = 0.0294) it was 1428.11 ± 1.3 kg/m3; in data set [2] (303.15 K, x1 = 0.0381), 1415.97 ± 1.2 kg/m3; in data set [2] (303.15 K, x1 = 0.0482), 1401.96 ± 1.2 kg/m3; in data set [2] (303.15 K, x1 = 0.0593), 1387.11 ± 1.2 kg/m3. The mass density in data set [2] (303.15 K, x1 = 0.0684) is on record as 1375.09 ± 1.1 kg/m3; in data set [2] (303.15 K, x1 = 0.0788), 1361.57 ± 1.1 kg/m3; in data set [2] (303.15 K, x1 = 0.0876) it was 1350.35 ± 1.1 kg/m3; in data set [2] (313.15 K, x1 = 0.0103) it was 1433.69 ± 1.3 kg/m3; in data set [2] (313.15 K, x1 = 0.0197), 1420.36 ± 1.2 kg/m3; in data set [2] (313.15 K, x1 = 0.0294), 1406.9 ± 1.2 kg/m3. Moreover, the mass density in data set [2] (313.15 K, x1 = 0.0381) came out at 1394.99 ± 1.2 kg/m3; in data set [2] (313.15 K, x1 = 0.0482) it was 1381.38 ± 1.2 kg/m3; in data set [2] (313.15 K, x1 = 0.0593), 1366.85 ± 1.1 kg/m3; in data set [2] (313.15 K, x1 = 0.0684), 1355.19 ± 1.1 kg/m3; in data set [2] (313.15 K, x1 = 0.0788) it was 1342.11 ± 1.1 kg/m3; in data set [2] (313.15 K, x1 = 0.0876), 1331.13 ± 1.1 kg/m3. For the same compound, the viscosity in data set [2] (303.15 K, x1 = 0.0103) is listed as 0.53 ± 0.008 mPa·s; in data set [2] (303.15 K, x1 = 0.0197), 0.54 ± 0.008 mPa·s; in data set [2] (303.15 K, x1 = 0.0294) it was 0.552 ± 0.008 mPa·s; in data set [2] (303.15 K, x1 = 0.0381) it was 0.56 ± 0.008 mPa·s; in data set [2] (303.15 K, x1 = 0.0482) it was 0.572 ± 0.008 mPa·s; in data set [2] (303.15 K, x1 = 0.0593), 0.584 ± 0.008 mPa·s. Moreover, the viscosity in data set [2] (303.15 K, x1 = 0.0684) is 0.599 ± 0.009 mPa·s; in data set [2] (303.15 K, x1 = 0.0788) it was 0.612 ± 0.009 mPa·s; in data set [2] (303.15 K, x1 = 0.0876), 0.624 ± 0.009 mPa·s; in data set [2] (313.15 K, x1 = 0.0103) it was 0.48 ± 0.007 mPa·s; in data set [2] (313.15 K, x1 = 0.0197), 0.489 ± 0.007 mPa·s; in data set [2] (313.15 K, x1 = 0.0294), 0.493 ± 0.007 mPa·s. The viscosity was 0.502 ± 0.008 mPa·s in data set [2] (313.15 K, x1 = 0.0381); 0.51 ± 0.008 mPa·s in data set [2] (313.15 K, x1 = 0.0482); 0.516 ± 0.008 mPa·s in data set [2] (313.15 K, x1 = 0.0593); 0.528 ± 0.008 mPa·s in data set [2] (313.15 K, x1 = 0.0684); 0.535 ± 0.008 mPa·s in data set [2] (313.15 K, x1 = 0.0788); 0.542 ± 0.008 mPa·s in data set [2] (313.15 K, x1 = 0.0876).

`C1COCCO1` [1,4-dioxane]: in data set [1] (303.15 K), the mass density turned out to be 1022.3 ± 0.3 kg/m3 and the viscosity is given as 1.086 ± 0.018 mPa·s.

For the compound `CCN(CC)CC` [triethylamine] + CCCCOC(C)=O, the mass density came to 870.3 ± 0.61 kg/m3 in data set [2] (303.15 K, x1 = 0.0065); 869.1 ± 0.61 kg/m3 in data set [2] (303.15 K, x1 = 0.0144); 867.85 ± 0.61 kg/m3 in data set [2] (303.15 K, x1 = 0.0226); 866.83 ± 0.61 kg/m3 in data set [2] (303.15 K, x1 = 0.0293); 865.53 ± 0.61 kg/m3 in data set [2] (303.15 K, x1 = 0.0378); 864.42 ± 0.61 kg/m3 in data set [2] (303.15 K, x1 = 0.0454). Further, the mass density in data set [2] (303.15 K, x1 = 0.0509) worked out at 863.54 ± 0.61 kg/m3; in data set [2] (303.15 K, x1 = 0.0596) it was 862.22 ± 0.61 kg/m3; in data set [2] (303.15 K, x1 = 0.0668), 861.13 ± 0.61 kg/m3; in data set [2] (303.15 K, x1 = 0.0733) it was 860.14 ± 0.61 kg/m3. In addition, the viscosity came to 0.641 ± 0.009 mPa·s in data set [2] (303.15 K, x1 = 0.0065); 0.638 ± 0.009 mPa·s in data set [2] (303.15 K, x1 = 0.0144); 0.631 ± 0.009 mPa·s in data set [2] (303.15 K, x1 = 0.0226); 0.628 ± 0.009 mPa·s in data set [2] (303.15 K, x1 = 0.0293); 0.623 ± 0.009 mPa·s in data set [2] (303.15 K, x1 = 0.0378); 0.618 ± 0.009 mPa·s in data set [2] (303.15 K, x1 = 0.0454). Also, the viscosity came to 0.613 ± 0.009 mPa·s in data set [2] (303.15 K, x1 = 0.0509); 0.607 ± 0.009 mPa·s in data set [2] (303.15 K, x1 = 0.0596); 0.603 ± 0.009 mPa·s in data set [2] (303.15 K, x1 = 0.0668); 0.599 ± 0.009 mPa·s in data set [2] (303.15 K, x1 = 0.0733).

One may read the mass density as the mass of a sample divided by its volume. The viscosity is the internal friction of a fluid under shear.
